Results from patent publication US20260207623A1, “USE OF ESTETROL IN HEPATICALLY IMPAIRED PATIENTS” (ESTETRA SRL, priority 2022, published 2026).

What was measured:
post-menopausal women [1] = experiment: Example 2 dose-finding study: weekly frequency of moderate to severe VMS (absolute and relative change, responders); assay type: in vivo, human; settings: for Weekly frequency of moderate to severe VMS, relative change (% from baseline), Mean: 15 mg daily, section B analysis
Description: Enrolment was approximately 18 months. Individual subject participation was up to 27 weeks: up to 6 weeks pre-screening and washout, up to 4 weeks screening and run-in period, up to 91 days (13 weeks) of E4 monohydrate or placebo treatment followed by 2 weeks (14 days) of progestin therapy and a Follow up visit 1 week after completion of progestin therapy in non-hysterectomied subjects only.
To define the minimum effective dose (MED) of the oral dose of E4 by evaluating changes in frequency and in severity of moderate to severe vasomotor symptoms (VMS).
This was a prospective, multicentre, randomised, placebo-controlled, double-blinded, dose-finding study.
Eligible subjects were hysterectomied and non-hysterectomied post-menopausal women aged 40 to 65 years, inclusive, presenting at least 7 moderate to severe hot flushes/day or at least 50 moderate to severe hot flushes/week.
(§1) All treatments (Estetrol, hereinafter E4 as monohydrate, [2.5 mg, 5 mg, 10 mg, 15 mg] capsule) were administered once daily (QD) per os for at least 12 consecutive weeks until the last biological assessments (Day 91 maximum) had been performed.
In order to analyse the data recorded in this study, treatment groups have been compared using an ANCOVA (analysis of covariance) with respect to the change in weekly frequency of moderate to severe VMS from baseline to weeks 4 and 12. The ANCOVA model includes treatment (“trt1”) and study centre (“SITEPOOL”) as a fixed effect and baseline (“base”) as a covariate.
VMS frequency was also studied by grouping patients according to their degree of response.

post-menopausal women [2] = experiment: Example 2 dose-finding study: Hot Flush Weekly Weighted Score; assay type: in vivo, human
Method: Further, the terms “Hot Flush Weekly Weighted Score”, as used herein, corresponds to a score taking into account frequency and severity which is calculated by using the severity score (as calculated above): [(1×No. of mild VMS)+(2×No. of moderate VMS)+(3×No. of severe VMS)] during a 7 day period.
as §1
A further analysis of the results was thus prepared, where data from these two doses were grouped with the placebo dose and compared to the 10 mg and 15 mg estetrol monohydrate doses.

C[C@]12CC[C@@H]3c4ccc(O)cc4CC[C@H]3[C@@H]1[C@@H](O)[C@@H](O)[C@@H]2O [E4 monohydrate, estetrol monohydrate]
Weekly frequency of moderate to severe VMS, relative change (% from baseline), Mean (post-menopausal women [1]; week 10): −80%
Weekly frequency of moderate to severe VMS, relative change (% from baseline), Mean (post-menopausal women [1]; week 11): −82%
Weekly frequency of moderate to severe VMS, relative change (% from baseline), Mean (post-menopausal women [1]; week 12): −84%
efficacy on vasomotor parameters (post-menopausal women [1]; two lowest doses tested (2.5 mg per day and 5 mg per day)): did not show efficacy
Hot Flush Weekly Weighted Score, relative change (% from baseline), Mean (post-menopausal women [2]; 2.5 mg daily, week 0): 0%
Hot Flush Weekly Weighted Score, relative change (% from baseline), Mean (post-menopausal women [2]; 2.5 mg daily, week 1): −22%
Hot Flush Weekly Weighted Score, relative change (% from baseline), Mean (post-menopausal women [2]; 2.5 mg daily, week 2): −32%
Hot Flush Weekly Weighted Score, relative change (% from baseline), Mean (post-menopausal women [2]; 2.5 mg daily, week 3): −43%
Hot Flush Weekly Weighted Score, relative change (% from baseline), Mean (post-menopausal women [2]; 2.5 mg daily, week 4): −47%
Hot Flush Weekly Weighted Score, relative change (% from baseline), Mean (post-menopausal women [2]; 2.5 mg daily, week 5): −48%
Hot Flush Weekly Weighted Score, relative change (% from baseline), Mean (post-menopausal women [2]; 2.5 mg daily, week 6): −51%
Hot Flush Weekly Weighted Score, relative change (% from baseline), Mean (post-menopausal women [2]; 2.5 mg daily, week 7): −53%
Hot Flush Weekly Weighted Score, relative change (% from baseline), Mean (post-menopausal women [2]; 2.5 mg daily, week 8): −55%
Hot Flush Weekly Weighted Score, relative change (% from baseline), Mean (post-menopausal women [2]; 2.5 mg daily, week 9): −57%
Hot Flush Weekly Weighted Score, relative change (% from baseline), Mean (post-menopausal women [2]; 2.5 mg daily, week 10): −57%
Hot Flush Weekly Weighted Score, relative change (% from baseline), Mean (post-menopausal women [2]; 2.5 mg daily, week 11): −56%
Hot Flush Weekly Weighted Score, relative change (% from baseline), Mean (post-menopausal women [2]; 2.5 mg daily, week 12): −57%
Hot Flush Weekly Weighted Score, relative change (% from baseline), Mean (post-menopausal women [2]; 5 mg daily, week 0): 0%
Hot Flush Weekly Weighted Score, relative change (% from baseline), Mean (post-menopausal women [2]; 5 mg daily, week 1): −22%
Hot Flush Weekly Weighted Score, relative change (% from baseline), Mean (post-menopausal women [2]; 5 mg daily, week 2): −32%
Hot Flush Weekly Weighted Score, relative change (% from baseline), Mean (post-menopausal women [2]; 5 mg daily, week 3): −37%
Hot Flush Weekly Weighted Score, relative change (% from baseline), Mean (post-menopausal women [2]; 5 mg daily, week 4): −43%
Hot Flush Weekly Weighted Score, relative change (% from baseline), Mean (post-menopausal women [2]; 5 mg daily, week 5): −46%
Hot Flush Weekly Weighted Score, relative change (% from baseline), Mean (post-menopausal women [2]; 5 mg daily, week 6): −56%
Hot Flush Weekly Weighted Score, relative change (% from baseline), Mean (post-menopausal women [2]; 5 mg daily, week 7): −56%
Hot Flush Weekly Weighted Score, relative change (% from baseline), Mean (post-menopausal women [2]; 5 mg daily, week 8): −56%
Hot Flush Weekly Weighted Score, relative change (% from baseline), Mean (post-menopausal women [2]; 5 mg daily, week 9): −58%
Hot Flush Weekly Weighted Score, relative change (% from baseline), Mean (post-menopausal women [2]; 5 mg daily, week 10): −59%
Hot Flush Weekly Weighted Score, relative change (% from baseline), Mean (post-menopausal women [2]; 5 mg daily, week 11): −61%
Hot Flush Weekly Weighted Score, relative change (% from baseline), Mean (post-menopausal women [2]; 5 mg daily, week 12): −60%
Hot Flush Weekly Weighted Score, relative change (% from baseline), Mean (post-menopausal women [2]; 10 mg daily, week 0): 0%
Hot Flush Weekly Weighted Score, relative change (% from baseline), Mean (post-menopausal women [2]; 10 mg daily, week 0, section B analysis): 0%
Hot Flush Weekly Weighted Score, relative change (% from baseline), Mean (post-menopausal women [2]; 10 mg daily, week 1): −20%
Hot Flush Weekly Weighted Score, relative change (% from baseline), Mean (post-menopausal women [2]; 10 mg daily, week 1, section B analysis): −20%
Hot Flush Weekly Weighted Score, relative change (% from baseline), Mean (post-menopausal women [2]; 10 mg daily, week 2): −35%
Hot Flush Weekly Weighted Score, relative change (% from baseline), Mean (post-menopausal women [2]; 10 mg daily, week 3): −47%
Hot Flush Weekly Weighted Score, relative change (% from baseline), Mean (post-menopausal women [2]; 10 mg daily, week 4): −54%
Hot Flush Weekly Weighted Score, relative change (% from baseline), Mean (post-menopausal women [2]; 10 mg daily, week 5): −58%
Hot Flush Weekly Weighted Score, relative change (% from baseline), Mean (post-menopausal women [2]; 10 mg daily, week 7): −64%
Hot Flush Weekly Weighted Score, relative change (% from baseline), Mean (post-menopausal women [2]; 10 mg daily, week 7, section B analysis): −64%
Hot Flush Weekly Weighted Score, relative change (% from baseline), Mean (post-menopausal women [2]; 10 mg daily, week 8, section B analysis): −66%
Hot Flush Weekly Weighted Score, relative change (% from baseline), Mean (post-menopausal women [2]; 10 mg daily, week 9): −67%
Hot Flush Weekly Weighted Score, relative change (% from baseline), Mean (post-menopausal women [2]; 10 mg daily, week 9, section B analysis): −66%
Hot Flush Weekly Weighted Score, relative change (% from baseline), Mean (post-menopausal women [2]; 10 mg daily, week 10, section B analysis): −68%
Hot Flush Weekly Weighted Score, relative change (% from baseline), Mean (post-menopausal women [2]; 10 mg daily, week 11): −69%
Hot Flush Weekly Weighted Score, relative change (% from baseline), Mean (post-menopausal women [2]; 10 mg daily, week 11, section B analysis): −68%
Hot Flush Weekly Weighted Score, relative change (% from baseline), Mean (post-menopausal women [2]; 10 mg daily, week 12): −70%
Hot Flush Weekly Weighted Score, relative change (% from baseline), Mean (post-menopausal women [2]; 10 mg daily, week 12, section B analysis): −69%
Hot Flush Weekly Weighted Score, relative change (% from baseline), Mean (post-menopausal women [2]; 15 mg daily, week 0): 0%
Hot Flush Weekly Weighted Score, relative change (% from baseline), Mean (post-menopausal women [2]; 15 mg daily, week 0, section B analysis): 0%
Hot Flush Weekly Weighted Score, relative change (% from baseline), Mean (post-menopausal women [2]; 15 mg daily, week 1): −19%
Hot Flush Weekly Weighted Score, relative change (% from baseline), Mean (post-menopausal women [2]; 15 mg daily, week 1, section B analysis): −22%
Hot Flush Weekly Weighted Score, relative change (% from baseline), Mean (post-menopausal women [2]; 15 mg daily, week 2): −43%
Hot Flush Weekly Weighted Score, relative change (% from baseline), Mean (post-menopausal women [2]; 15 mg daily, week 3, section B analysis): −56%
Hot Flush Weekly Weighted Score, relative change (% from baseline), Mean (post-menopausal women [2]; 15 mg daily, week 4, section B analysis): −66%
Hot Flush Weekly Weighted Score, relative change (% from baseline), Mean (post-menopausal women [2]; 15 mg daily, week 5, section B analysis): −70%
Hot Flush Weekly Weighted Score, relative change (% from baseline), Mean (post-menopausal women [2]; 15 mg daily, week 6): −74%
Hot Flush Weekly Weighted Score, relative change (% from baseline), Mean (post-menopausal women [2]; 15 mg daily, week 6, section B analysis): −72%
Hot Flush Weekly Weighted Score, relative change (% from baseline), Mean (post-menopausal women [2]; 15 mg daily, week 8): −78%
Hot Flush Weekly Weighted Score, relative change (% from baseline), Mean (post-menopausal women [2]; 15 mg daily, week 8, section B analysis): −76%
Hot Flush Weekly Weighted Score, relative change (% from baseline), Mean (post-menopausal women [2]; 15 mg daily, week 9): −80%
Hot Flush Weekly Weighted Score, relative change (% from baseline), Mean (post-menopausal women [2]; 15 mg daily, week 9, section B analysis): −78%
Hot Flush Weekly Weighted Score, relative change (% from baseline), Mean (post-menopausal women [2]; 15 mg daily, week 10): −79%
Hot Flush Weekly Weighted Score, relative change (% from baseline), Mean (post-menopausal women [2]; 15 mg daily, week 11): −80%
Hot Flush Weekly Weighted Score, relative change (% from baseline), Mean (post-menopausal women [2]; 15 mg daily, week 11, section B analysis): −79%
Hot Flush Weekly Weighted Score, relative change (% from baseline), Mean (post-menopausal women [2]; 15 mg daily, week 12): −82%
Hot Flush Weekly Weighted Score, relative change (% from baseline), Mean (post-menopausal women [2]; 15 mg daily, week 12, section B analysis): −81%
